Structures are written as SMILES.

The target in this assay is Amyloid-beta precursor protein (Homo sapiens, UniProt P05067). As to the kind of experiment: Binding affinity to Amyloid-beta (unknown origin) (1 to 42 residues) assessed as dissociation constant incubated for 30 mins by fluorescence based analysis.
Chain of Amyloid-beta precursor protein (P05067 whole entry, the tested form may be a part): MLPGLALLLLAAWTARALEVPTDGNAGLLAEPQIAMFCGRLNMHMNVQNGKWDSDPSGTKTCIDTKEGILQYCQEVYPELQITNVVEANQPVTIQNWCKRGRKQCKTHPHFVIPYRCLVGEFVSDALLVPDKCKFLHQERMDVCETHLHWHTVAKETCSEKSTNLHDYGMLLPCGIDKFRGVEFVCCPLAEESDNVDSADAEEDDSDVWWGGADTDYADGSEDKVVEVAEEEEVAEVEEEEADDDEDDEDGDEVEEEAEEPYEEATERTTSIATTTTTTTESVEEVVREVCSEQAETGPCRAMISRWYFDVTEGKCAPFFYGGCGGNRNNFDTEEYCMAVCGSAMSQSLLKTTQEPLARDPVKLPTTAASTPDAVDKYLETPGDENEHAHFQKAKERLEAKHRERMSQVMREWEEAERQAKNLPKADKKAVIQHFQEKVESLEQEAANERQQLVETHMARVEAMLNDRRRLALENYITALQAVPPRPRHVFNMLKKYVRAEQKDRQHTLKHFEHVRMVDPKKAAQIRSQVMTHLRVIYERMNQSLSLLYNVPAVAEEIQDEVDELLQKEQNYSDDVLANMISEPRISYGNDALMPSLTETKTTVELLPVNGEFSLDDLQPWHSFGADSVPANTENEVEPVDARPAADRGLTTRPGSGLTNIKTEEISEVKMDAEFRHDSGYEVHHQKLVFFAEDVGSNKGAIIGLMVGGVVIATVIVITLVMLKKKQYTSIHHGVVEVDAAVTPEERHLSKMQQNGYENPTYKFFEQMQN

As for `CCOC(=O)CN1C(=O)/C(=C/c2ccc3c(c2)Sc2ccccc2N3C)SC1=S`, the Kd (as a rule, the free concentration of one partner at which half of the binding sites on the other are occupied at equilibrium, for simple one-to-one binding) was determined as 7.5 nM.

(Values after ChEMBL document CHEMBL5356946, “Recent progress of small-molecule-based theranostic agents in Alzheimer's disease” (RSC Med Chem, 2023).)
